Literature values, collected in US12503489B2, “Method for producing antibody-drug conjugate” (DAIICHI SANKYO COMPANY, LIMITED, priority 2017, dated 2025).

Target: T1, topoisomerase I (Homo sapiens, UniProt P11387)
T1 sequence (P11387 1-765): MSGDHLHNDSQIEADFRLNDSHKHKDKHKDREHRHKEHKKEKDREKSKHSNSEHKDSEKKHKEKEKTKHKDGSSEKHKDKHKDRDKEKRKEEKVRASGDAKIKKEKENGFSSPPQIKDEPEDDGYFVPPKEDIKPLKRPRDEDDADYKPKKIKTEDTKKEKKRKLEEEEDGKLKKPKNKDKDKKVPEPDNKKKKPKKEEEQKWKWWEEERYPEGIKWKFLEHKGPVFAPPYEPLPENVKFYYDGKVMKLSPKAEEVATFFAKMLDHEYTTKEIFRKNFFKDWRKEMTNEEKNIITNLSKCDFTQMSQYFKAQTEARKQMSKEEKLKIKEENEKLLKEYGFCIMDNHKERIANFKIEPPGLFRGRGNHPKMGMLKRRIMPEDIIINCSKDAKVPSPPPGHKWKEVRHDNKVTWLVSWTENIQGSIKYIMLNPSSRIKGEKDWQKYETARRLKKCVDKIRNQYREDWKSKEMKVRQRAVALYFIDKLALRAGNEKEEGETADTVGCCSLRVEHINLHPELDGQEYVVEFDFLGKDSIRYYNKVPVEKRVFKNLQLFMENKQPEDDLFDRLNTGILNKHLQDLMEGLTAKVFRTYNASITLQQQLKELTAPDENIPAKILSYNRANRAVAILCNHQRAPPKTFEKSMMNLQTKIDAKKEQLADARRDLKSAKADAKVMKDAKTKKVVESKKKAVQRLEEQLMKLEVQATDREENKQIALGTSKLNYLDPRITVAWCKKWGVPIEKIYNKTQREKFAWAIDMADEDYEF
Settings: Ogitani Y. et al., Clinical Cancer Research 2016; 22 (20): 5097-5108

Compound: CC[C@@]1(O)C(=O)OCc2c1cc1n(c2=O)Cc2c-1nc1cc(F)c(C)c3c1c2[C@@H](NC(=O)CO)CC3 [formula (22)]
- topoisomerase I inhibitory effect: confirmed to have a topoisomerase I inhibitory effect
